Measured values reported in ChEMBL document CHEMBL4507319 (2021).

Columns and labels:
Conditions in all cases: Compound concentration 1.0 uM
[1] = target: Calcium/calmodulin-dependent protein kinase type II subunit delta (Homo sapiens) (UniProt Q13557); experiment: CaMKIIdelta(h) Eurofins kinase panel
[2] = target: T1, Protein kinase C epsilon type (Homo sapiens) (UniProt Q02156); experiment: PKCepsilon (h) Eurofins kinase panel
T1 sequence (whole entry): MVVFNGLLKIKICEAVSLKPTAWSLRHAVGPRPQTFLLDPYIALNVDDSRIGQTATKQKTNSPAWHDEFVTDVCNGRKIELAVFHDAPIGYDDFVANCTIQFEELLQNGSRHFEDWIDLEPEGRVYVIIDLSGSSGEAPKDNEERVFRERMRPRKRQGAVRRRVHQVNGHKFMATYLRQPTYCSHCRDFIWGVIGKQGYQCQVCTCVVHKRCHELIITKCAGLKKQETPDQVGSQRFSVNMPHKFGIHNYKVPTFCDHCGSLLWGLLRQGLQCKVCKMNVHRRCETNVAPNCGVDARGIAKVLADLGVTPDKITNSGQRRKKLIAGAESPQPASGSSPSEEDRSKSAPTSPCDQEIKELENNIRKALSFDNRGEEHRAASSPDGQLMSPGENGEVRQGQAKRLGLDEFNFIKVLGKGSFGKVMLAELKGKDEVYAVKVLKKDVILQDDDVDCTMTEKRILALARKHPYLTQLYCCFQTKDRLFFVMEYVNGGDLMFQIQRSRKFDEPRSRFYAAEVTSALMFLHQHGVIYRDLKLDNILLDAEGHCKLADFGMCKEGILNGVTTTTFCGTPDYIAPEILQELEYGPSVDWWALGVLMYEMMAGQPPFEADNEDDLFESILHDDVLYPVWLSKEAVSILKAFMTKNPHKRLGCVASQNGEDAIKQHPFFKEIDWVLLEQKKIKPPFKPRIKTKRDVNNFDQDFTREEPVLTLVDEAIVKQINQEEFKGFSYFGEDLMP

[3] = target: Tyrosine-protein kinase Blk (Homo sapiens) (UniProt P51451); experiment: Blk(h) Eurofins kinase panel
[4] = target: Tyrosine-protein kinase receptor UFO (Homo sapiens) (UniProt P30530); experiment: Axl(h) Eurofins kinase panel
[5] = target: T2, Serine/threonine-protein kinase Nek1 (Homo sapiens) (UniProt Q96PY6); experiment: NEK1(h) Eurofins kinase panel
T2 sequence (whole entry): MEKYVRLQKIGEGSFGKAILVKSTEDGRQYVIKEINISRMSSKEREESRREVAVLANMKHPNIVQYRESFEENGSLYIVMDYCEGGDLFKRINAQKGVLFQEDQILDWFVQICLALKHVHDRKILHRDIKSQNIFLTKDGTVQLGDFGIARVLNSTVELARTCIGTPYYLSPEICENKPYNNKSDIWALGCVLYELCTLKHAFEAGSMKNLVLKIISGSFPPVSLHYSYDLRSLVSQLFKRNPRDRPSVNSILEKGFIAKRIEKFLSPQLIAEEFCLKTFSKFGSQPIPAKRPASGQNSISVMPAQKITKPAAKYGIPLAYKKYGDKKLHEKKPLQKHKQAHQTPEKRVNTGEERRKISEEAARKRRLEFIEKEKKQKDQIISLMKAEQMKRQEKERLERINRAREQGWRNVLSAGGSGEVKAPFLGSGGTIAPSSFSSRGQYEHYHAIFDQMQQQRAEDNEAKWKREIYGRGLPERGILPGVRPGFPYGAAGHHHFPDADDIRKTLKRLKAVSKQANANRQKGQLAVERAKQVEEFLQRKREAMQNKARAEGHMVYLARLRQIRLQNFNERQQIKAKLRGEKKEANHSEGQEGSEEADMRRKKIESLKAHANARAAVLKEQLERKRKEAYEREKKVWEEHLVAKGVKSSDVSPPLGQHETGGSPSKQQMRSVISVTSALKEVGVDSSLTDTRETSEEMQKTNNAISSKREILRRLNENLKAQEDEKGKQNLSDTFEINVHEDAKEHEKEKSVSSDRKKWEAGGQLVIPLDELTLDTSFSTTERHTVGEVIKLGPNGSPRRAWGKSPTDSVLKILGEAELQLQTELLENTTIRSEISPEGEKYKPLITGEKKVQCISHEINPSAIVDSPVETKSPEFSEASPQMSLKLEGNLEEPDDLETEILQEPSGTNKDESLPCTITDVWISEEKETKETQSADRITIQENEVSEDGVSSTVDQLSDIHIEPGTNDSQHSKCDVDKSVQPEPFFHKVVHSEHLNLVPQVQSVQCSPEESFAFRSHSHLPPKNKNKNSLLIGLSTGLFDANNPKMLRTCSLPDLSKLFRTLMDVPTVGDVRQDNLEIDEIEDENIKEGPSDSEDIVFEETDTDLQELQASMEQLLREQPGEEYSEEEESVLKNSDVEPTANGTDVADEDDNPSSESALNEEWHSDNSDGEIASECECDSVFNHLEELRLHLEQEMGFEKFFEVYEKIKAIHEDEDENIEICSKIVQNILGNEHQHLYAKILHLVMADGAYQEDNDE

[6] = target: Activated CDC42 kinase 1 (Homo sapiens) (UniProt Q07912); experiment: ACK1(h) Eurofins kinase panel
[7] = target: T3, Muscle, skeletal receptor tyrosine-protein kinase (Homo sapiens) (UniProt O15146); experiment: MuSK(h) Eurofins kinase panel
T3 sequence (whole entry): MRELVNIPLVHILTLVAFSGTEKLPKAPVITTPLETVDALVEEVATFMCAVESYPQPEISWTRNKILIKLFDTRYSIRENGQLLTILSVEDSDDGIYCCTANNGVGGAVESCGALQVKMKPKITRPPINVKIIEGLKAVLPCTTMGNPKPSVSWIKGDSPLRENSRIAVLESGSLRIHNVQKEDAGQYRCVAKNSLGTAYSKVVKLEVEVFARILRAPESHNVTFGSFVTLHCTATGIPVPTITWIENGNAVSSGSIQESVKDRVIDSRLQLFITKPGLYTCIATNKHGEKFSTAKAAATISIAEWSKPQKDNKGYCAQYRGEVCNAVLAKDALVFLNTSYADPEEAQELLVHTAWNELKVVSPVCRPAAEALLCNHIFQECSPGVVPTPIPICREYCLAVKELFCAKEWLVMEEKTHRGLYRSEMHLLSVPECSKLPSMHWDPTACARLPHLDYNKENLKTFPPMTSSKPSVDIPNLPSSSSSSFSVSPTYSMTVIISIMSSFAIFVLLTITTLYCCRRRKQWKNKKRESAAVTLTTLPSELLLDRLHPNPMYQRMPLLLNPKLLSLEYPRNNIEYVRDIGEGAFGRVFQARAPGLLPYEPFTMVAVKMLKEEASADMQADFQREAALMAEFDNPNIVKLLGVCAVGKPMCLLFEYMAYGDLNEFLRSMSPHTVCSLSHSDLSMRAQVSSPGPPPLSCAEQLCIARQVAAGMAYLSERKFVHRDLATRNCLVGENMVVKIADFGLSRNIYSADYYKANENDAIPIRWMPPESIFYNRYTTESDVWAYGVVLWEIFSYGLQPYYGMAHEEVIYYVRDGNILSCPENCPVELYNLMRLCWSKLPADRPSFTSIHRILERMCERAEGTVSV

Measured: % residual kinase activity

Sequence of Tyrosine-protein kinase receptor UFO (Homo sapiens) (P30530 whole entry): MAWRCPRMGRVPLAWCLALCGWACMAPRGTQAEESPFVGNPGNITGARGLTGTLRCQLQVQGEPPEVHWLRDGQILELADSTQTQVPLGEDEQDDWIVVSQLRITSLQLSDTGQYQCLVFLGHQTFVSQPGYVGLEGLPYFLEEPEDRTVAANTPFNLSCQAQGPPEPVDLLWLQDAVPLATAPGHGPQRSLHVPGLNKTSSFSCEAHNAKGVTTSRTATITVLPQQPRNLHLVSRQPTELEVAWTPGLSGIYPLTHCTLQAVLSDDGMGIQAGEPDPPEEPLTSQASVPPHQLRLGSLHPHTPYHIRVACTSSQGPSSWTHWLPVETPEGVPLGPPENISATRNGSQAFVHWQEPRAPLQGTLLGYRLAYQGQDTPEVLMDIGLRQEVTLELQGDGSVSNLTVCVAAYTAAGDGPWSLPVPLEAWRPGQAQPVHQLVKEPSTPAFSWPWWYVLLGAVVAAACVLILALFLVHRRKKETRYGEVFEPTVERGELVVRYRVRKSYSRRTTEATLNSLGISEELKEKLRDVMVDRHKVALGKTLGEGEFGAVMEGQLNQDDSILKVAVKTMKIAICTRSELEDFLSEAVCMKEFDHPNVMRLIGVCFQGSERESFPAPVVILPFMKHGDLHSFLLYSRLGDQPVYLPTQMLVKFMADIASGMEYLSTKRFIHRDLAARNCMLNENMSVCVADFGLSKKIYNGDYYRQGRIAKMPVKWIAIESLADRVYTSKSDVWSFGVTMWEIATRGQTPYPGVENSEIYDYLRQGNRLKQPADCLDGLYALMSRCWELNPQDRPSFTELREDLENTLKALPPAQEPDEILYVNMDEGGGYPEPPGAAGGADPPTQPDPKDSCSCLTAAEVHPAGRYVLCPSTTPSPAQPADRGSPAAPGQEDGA
Sequence of Tyrosine-protein kinase Blk (Homo sapiens) (P51451 2-505 limits assumed): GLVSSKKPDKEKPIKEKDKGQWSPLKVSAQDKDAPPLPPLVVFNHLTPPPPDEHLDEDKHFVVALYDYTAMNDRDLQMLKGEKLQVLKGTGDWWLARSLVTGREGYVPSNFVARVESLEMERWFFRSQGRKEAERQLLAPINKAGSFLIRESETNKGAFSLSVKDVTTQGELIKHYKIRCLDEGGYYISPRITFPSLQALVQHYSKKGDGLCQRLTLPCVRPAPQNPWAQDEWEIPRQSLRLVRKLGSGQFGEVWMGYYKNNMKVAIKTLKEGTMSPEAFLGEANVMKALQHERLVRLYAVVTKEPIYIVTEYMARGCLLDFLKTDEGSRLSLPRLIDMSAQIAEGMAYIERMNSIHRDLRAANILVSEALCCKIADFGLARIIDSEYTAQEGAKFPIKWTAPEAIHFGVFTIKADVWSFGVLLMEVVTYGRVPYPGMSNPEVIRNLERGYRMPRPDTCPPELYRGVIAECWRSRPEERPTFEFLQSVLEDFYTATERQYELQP
Sequence of Calcium/calmodulin-dependent protein kinase type II subunit delta (Homo sapiens) (Q13557 whole entry): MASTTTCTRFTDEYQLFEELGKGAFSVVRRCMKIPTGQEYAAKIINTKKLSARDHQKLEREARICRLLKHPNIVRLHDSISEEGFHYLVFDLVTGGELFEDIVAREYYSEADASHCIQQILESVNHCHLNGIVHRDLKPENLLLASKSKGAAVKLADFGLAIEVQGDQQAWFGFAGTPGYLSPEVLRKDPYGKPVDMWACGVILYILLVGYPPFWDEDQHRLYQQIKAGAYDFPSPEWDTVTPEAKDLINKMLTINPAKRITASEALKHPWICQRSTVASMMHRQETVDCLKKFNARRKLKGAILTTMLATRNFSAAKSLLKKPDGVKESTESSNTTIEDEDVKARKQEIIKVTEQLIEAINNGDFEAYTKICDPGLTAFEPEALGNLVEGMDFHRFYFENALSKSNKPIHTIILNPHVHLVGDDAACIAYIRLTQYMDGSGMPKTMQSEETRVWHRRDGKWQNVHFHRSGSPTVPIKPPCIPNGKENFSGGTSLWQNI
Sequence of Activated CDC42 kinase 1 (Homo sapiens) (Q07912 whole entry, looked up): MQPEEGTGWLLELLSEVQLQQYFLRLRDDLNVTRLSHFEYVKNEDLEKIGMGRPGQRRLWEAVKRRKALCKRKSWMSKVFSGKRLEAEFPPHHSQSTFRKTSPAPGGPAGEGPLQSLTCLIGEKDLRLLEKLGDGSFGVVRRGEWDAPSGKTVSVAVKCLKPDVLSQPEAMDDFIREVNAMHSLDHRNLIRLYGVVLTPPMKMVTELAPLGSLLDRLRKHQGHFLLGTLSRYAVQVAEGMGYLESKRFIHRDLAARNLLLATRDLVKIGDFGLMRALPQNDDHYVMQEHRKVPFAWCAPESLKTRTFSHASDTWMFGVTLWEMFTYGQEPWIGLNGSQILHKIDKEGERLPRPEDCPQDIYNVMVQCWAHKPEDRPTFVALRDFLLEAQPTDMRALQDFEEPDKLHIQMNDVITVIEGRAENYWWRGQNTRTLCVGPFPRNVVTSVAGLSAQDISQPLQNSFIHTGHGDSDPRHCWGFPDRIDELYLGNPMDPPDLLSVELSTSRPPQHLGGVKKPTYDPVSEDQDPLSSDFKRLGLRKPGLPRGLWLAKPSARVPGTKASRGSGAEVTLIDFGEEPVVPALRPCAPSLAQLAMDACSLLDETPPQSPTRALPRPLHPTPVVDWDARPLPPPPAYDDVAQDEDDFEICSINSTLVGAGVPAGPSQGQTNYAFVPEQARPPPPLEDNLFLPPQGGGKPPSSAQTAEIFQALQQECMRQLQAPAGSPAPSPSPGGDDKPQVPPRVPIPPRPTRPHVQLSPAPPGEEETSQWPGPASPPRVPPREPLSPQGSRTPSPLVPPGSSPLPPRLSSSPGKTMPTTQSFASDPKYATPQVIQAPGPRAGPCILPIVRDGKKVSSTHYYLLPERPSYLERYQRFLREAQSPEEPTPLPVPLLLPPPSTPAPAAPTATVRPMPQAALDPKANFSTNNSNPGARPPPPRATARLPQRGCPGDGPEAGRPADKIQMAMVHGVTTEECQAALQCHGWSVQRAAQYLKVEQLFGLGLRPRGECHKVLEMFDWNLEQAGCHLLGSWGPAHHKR

CCc1ccccc1C(=O)Nc1n[nH]c2c(C)c(F)c(C3C(C#N)=C(C)N(C)C(C)=C3C#N)cc12 [BAY-3827]
inactive: [1] 75% | [2] 62% | [3] 111% | [4] 100% | [5] 102% | [6] 94% | [7] 91%
